Measurements taken from patent US20190127359A1, “Compounds & Methods for the Enhanced Degradation of Targeted Proteins & Other Polypeptides by an E3 Ubiquitin Ligase” (YALE UNIVERSITY, priority 2012, published 2019).

molecular target: VHL (Homo sapiens, UniProt P40337); assay: Fluorescence polarization competition assay (HIF-1α peptide FP displacement); conditions: 10% DMSO

| SMILES | IC50 (μM) 10% DMSO |
| --- | --- |
| CS(=O)(=O)N1C[C@H](O)C[C@H]1C(=O)NCCc1ccc(O)cc1 [VL006] | Inactive |
| CS(=O)(=O)N1C[C@H](O)C[C@H]1C(=O)NCc1cccc(Cl)c1 [VL007] | Inactive |
| Cc1ccc(S(=O)(=O)N2C[C@H](O)C[C@H]2C(=O)Nc2ccc(Br)cc2F)cc1 [VL009] | Inactive |
| CS(=O)(=O)N1C[C@H](O)C[C@H]1C(=O)Nc1ccc(Br)cc1F [VL010] | Inactive |

same assay, conditions: IC50 (μM) 1% DMSO, 1% DMSO

| SMILES | IC50 |
| --- | --- |
| O=C(NCc1ccc(Cl)cc1)[C@@H]1C[C@@H](O)CN1C(=O)c1ccccc1Cl [VL073] | 46 µM |

same assay, conditions: IC50 (μM) 10% DMSO, 10% DMSO

| SMILES | IC50 |
| --- | --- |
| O=C(Nc1ccc(Br)cc1F)[C@@H]1C[C@@H](O)CN1S(=O)(=O)c1ccc2ccccc2c1 [VL001] | > 1000 µM |
| Cc1cc(CC(=O)N2C[C@H](O)C[C@H]2C(=O)NCCc2ccc(O)cc2)on1 [VL002, (2S,4R)-4-hydroxy-N-(4-hydroxyphenethyl)-1-(2-(3-methylisoxazol-5-yl)acetyl)pyrrolidine-2-carboxamide] | 241 µM |
| Cc1ccc(S(=O)(=O)N2C[C@H](O)C[C@H]2C(=O)NCCc2ccc(O)cc2)cc1 [VL003] | > 1000 µM |
| Cc1cc(CC(=O)N2C[C@H](O)C[C@H]2C(=O)NCc2cccc(Cl)c2)on1 [VL004, (2S,4R)—N-(3-chlorobenzyl)-4-hydroxy-1-(2-(3-methylisoxazol-5-yl)acetyl)pyrrolidine-2-carboxamide] | 123 µM |
| O=C(NCCc1ccc(O)cc1)[C@@H]1C[C@@H](O)CN1C(=O)Cc1nnn[nH]1 [VL005] | > 1000 µM |
| Cc1ccc(S(=O)(=O)N2C[C@H](O)C[C@H]2C(=O)NCc2cccc(Cl)c2)cc1 [VL008] | > 1000 µM |
| Cc1cc(CC(=O)N2C[C@H](O)C[C@H]2C(=O)Nc2ccc(Br)cc2F)on1 [VL011] | > 1000 µM |
| O=C(NCc1cccc(Cl)c1)[C@@H]1C[C@@H](O)CN1C(=O)Cc1nnn[nH]1 [VL012] | > 1000 µM |
| O=C(NCc1cccc(Cl)c1)[C@@H]1C[C@@H](O)CN1S(=O)(=O)c1cccc([N+](=O)[O-])c1 [VL013] | 240 µM |
| Cc1cc(CC(=O)N2C[C@H](O)C[C@H]2C(=O)NCc2ccc(-c3ccccc3)cc2)on1 [VL014] | 4.7 µM |
| Cc1cc(CC(=O)N2C[C@H](O)C[C@H]2C(=O)NCCN2CCOCC2)on1 [VL015] | > 1000 µM |
| Cc1cc(CC(=O)N2C[C@H](O)C[C@H]2C(=O)NCc2cccs2)on1 [VL016] | ~730 µM |
| Cc1cc(CC(=O)N2C[C@H](O)C[C@H]2C(=O)NCc2ccc3c(c2)OCO3)on1 [VL017] | ~510 µM |
| Cc1cc(CC(=O)N2C[C@H](O)C[C@H]2C(=O)NCc2ccc(N(C)C)cc2)on1 [VL018] | 280 µM |
| Cc1cc(CC(=O)N2C[C@H](O)C[C@H]2C(=O)NCc2ccccn2)on1 [VL019] | 451 µM |
| Cc1cc(CC(=O)N2C[C@H](O)C[C@H]2C(=O)NCc2ccc(F)cc2)on1 [VL020] | 295 µM |
| Cc1cc(CC(=O)N2C[C@H](O)C[C@H]2C(=O)NCc2ccc(Cl)cc2)on1 [VL021] | 36 µM |
| Cc1cc(CC(=O)N2C[C@H](O)C[C@H]2C(=O)NCc2cccc(C(F)(F)F)c2)on1 [VL022] | ~870 µM |
| Cc1cc(CC(=O)N2C[C@H](O)C[C@H]2C(=O)NCc2ccc(Cl)c(C(F)(F)F)c2)on1 [VL023] | 589 µM |
| COc1cccc(CNC(=O)[C@@H]2C[C@@H](O)CN2C(=O)Cc2cc(C)no2)c1 [VL024] | 511 µM |
| COc1ccc(CNC(=O)[C@@H]2C[C@@H](O)CN2C(=O)Cc2cc(C)no2)cc1OC [VL025] | 517 µM |
| CNC(=O)c1cc(Oc2ccc(NC(=O)[C@@H]3C[C@@H](O)CN3C(=O)Cc3cc(C)no3)cc2)ccn1 [VL027] | > 1000 µM |
| Cc1cc(CC(=O)N2C[C@H](O)C[C@H]2C(=O)NCc2ccccc2Cl)on1 [VL028] | 210 µM |
| Cc1cc(CC(=O)N2C[C@H](O)C[C@H]2C(=O)NCc2ccc(Br)cc2)on1 [VL029] | 24.9 µM |

| SMILES | IC50 |
| --- | --- |
| Cc1cc(CC(=O)N2C[C@H](O)C[C@H]2C(=O)NCc2ccc(Cl)c(Cl)c2)on1 [VL030] | 215 µM |
| Cc1cc(CC(=O)N2C[C@H](O)C[C@H]2C(=O)NCc2ccc(C(C)(C)C)cc2)on1 [VL031] | 68.5 µM |
| Cc1cc(CC(=O)N2C[C@H](O)C[C@H]2C(=O)N[C@@H](C)c2ccccc2)on1 [VL032] | 639 µM |
| Cc1cc(CC(=O)N2C[C@H](O)C[C@H]2C(=O)N[C@H](C)c2ccccc2)on1 [VL033] | > 1000 µM |
| Cc1cc(CC(=O)N2C[C@H](O)C[C@H]2C(=O)NCc2cccnc2)on1 [VL036] | 744 µM |
| Cc1cc(CC(=O)N2C[C@H](O)C[C@H]2C(=O)NCc2ccncc2)on1 [VL037] | 88.8 µM |
| Cc1cc(CC(=O)N2C[C@H](O)C[C@H]2C(=O)N2CCc3ccccc3C2)on1 [VL039] | > 1000 µM |
| COc1ccccc1N1CCN(C(=O)[C@@H]2C[C@@H](O)CN2C(=O)Cc2cc(C)no2)CC1 [VL043] | > 1000 µM |
| Cc1cc(CC(=O)N2C[C@H](O)C[C@H]2C(=O)NCc2ccc(C)o2)on1 [VL044] | 286 µM |
| Cc1cc(CC(=O)N2C[C@H](O)C[C@H]2C(=O)NCc2ccc(OC(F)(F)F)cc2)on1 [VL045] | 146 µM |
| Cc1cc(CC(=O)N2C[C@H](O)C[C@H]2C(=O)NCc2ccc(C(F)(F)F)cc2)on1 [VL046] | 215 µM |
| Cc1cc(CC(=O)N2C[C@H](O)C[C@H]2C(=O)NCc2ccc([N+](=O)[O-])cc2)on1 [VL048] | 24.8 µM |
| Cc1cc(CC(=O)N2C[C@H](O)C[C@H]2C(=O)N[C@@H](C)c2ccc([N+](=O)[O-])cc2)on1 [VL049] | 15.1 µM |
| NC(=O)CCC(=O)N1C[C@H](O)C[C@H]1C(=O)NCc1ccc(Cl)cc1 [VL050] | 332 µM |
| N#CCC(=O)N1C[C@H](O)C[C@H]1C(=O)NCc1ccc(Cl)cc1 [VL051] | > 1000 µM |
| O=C(NCc1ccc(Cl)cc1)[C@@H]1C[C@@H](O)CN1C(=O)Cc1ccco1 [VL052] | > 1000 µM |
| O=C(NCc1ccc(Cl)cc1)[C@@H]1C[C@@H](O)CN1C(=O)Cc1cccs1 [VL053] | > 1000 µM |
| O=C(NCc1ccc(Cl)cc1)[C@@H]1C[C@@H](O)CN1C(=O)c1cccc(Cl)c1 [VL054] | 140 µM |
| O=C(NCc1ccc(Cl)cc1)[C@@H]1C[C@@H](O)CN1C(=O)Cc1cccc(Br)c1 [VL055] | 910 µM |
| N#Cc1ccc(CC(=O)N2C[C@H](O)C[C@H]2C(=O)NCc2ccc(Cl)cc2)cc1 [VL056] | 939 µM |
| COc1cc(/C=C/C(=O)N2C[C@H](O)C[C@H]2C(=O)NCc2ccc(Cl)cc2)cc(OC)c1O [VL057] | > 1000 µM |
| CS(=O)(=O)c1ccc(CC(=O)N2C[C@H](O)C[C@H]2C(=O)NCc2ccc(Cl)cc2)cc1 [VL058] | > 1000 µM |
| N#Cc1cc(Br)cc(C(=O)N2C[C@H](O)C[C@H]2C(=O)NCc2ccc(Cl)cc2)c1 [VL059] | 205 µM |
| O=C(NCc1ccc(Cl)cc1)[C@@H]1C[C@@H](O)CN1C(=O)c1cc(-c2ccccc2)on1 [VL060] | > 1000 µM |

| SMILES | IC50 |
| --- | --- |
| O=C(NCc1ccc(Cl)cc1)[C@@H]1C[C@@H](O)CN1C(=O)c1cc(C2CC2)on1 [VL061] | 419 µM |
| O=C(NCc1ccc(Cl)cc1)[C@@H]1C[C@@H](O)CN1C(=O)Cc1ccncc1 [VL062] | > 1000 µM |
| N#Cc1cc(S(=O)(=O)N2C[C@H](O)C[C@H]2C(=O)NCc2ccc(Cl)cc2)ccc1F [VL063] | > 1000 µM |
| O=C(NCc1ccc(Cl)cc1)[C@@H]1C[C@@H](O)CN1C(=O)c1ccccc1 [VL064] | 110 µM |
| O=C(NCc1ccc(Cl)cc1)[C@@H]1C[C@@H](O)CN1C(=O)c1ccccc1[N+](=O)[O-] [VL065] | 74.2 µM |
| Cc1c(C(=O)N2C[C@H](O)C[C@H]2C(=O)NCc2ccc(Cl)cc2)cccc1[N+](=O)[O-] [VL066] | 72.4 µM |
| O=C(NCc1ccc(Cl)cc1)[C@@H]1C[C@@H](O)CN1C(=O)c1ccc([N+](=O)[O-])cc1 [VL067] | 70.7 µM |
| N#Cc1ccc(CC(=O)N2C[C@H](O)C[C@H]2C(=O)NCc2ccc(Cl)cc2)s1 [VL068] | > 1000 µM |
| COc1ccc(C(=O)N2C[C@H](O)C[C@H]2C(=O)NCc2ccc(Cl)cc2)cc1OC [VL069] | 23.8 µM |
| Nc1ccccc1C(=O)N1C[C@H](O)C[C@H]1C(=O)NCc1ccc(Cl)cc1 [VL070] | 38.2 µM |
| Cc1c(N)cccc1C(=O)N1C[C@H](O)C[C@H]1C(=O)NCc1ccc(Cl)cc1 [VL071] | 10.4 µM |
| Nc1ccc(C(=O)N2C[C@H](O)C[C@H]2C(=O)NCc2ccc(Cl)cc2)cc1 [VL072] | 29.5 µM |
| O=C(NCc1ccc(Cl)cc1)[C@@H]1C[C@@H](O)CN1C(=O)c1ccccc1Cl [VL073] | 39 µM |
| O=C(NCc1ccc(Cl)cc1)[C@@H]1C[C@@H](O)CN1C(=O)c1ccc(Cl)cc1 [VL074] | 42.9 µM |
| O=C(NCc1ccc(Cl)cc1)[C@@H]1C[C@@H](O)CN1C(=O)c1cccc(F)c1 [VL075] | 35.5 µM |
| O=C(NCc1ccc(Cl)cc1)[C@@H]1C[C@@H](O)CN1C(=O)c1cccc(Br)c1 [VL076] | 19.6 µM |
| N#Cc1cccc(C(=O)N2C[C@H](O)C[C@H]2C(=O)NCc2ccc(Cl)cc2)c1 [VL077] | 8.9 µM |
| O=C(NCc1ccc(Cl)cc1)[C@@H]1C[C@@H](O)CN1C(=O)c1cccc(C(F)(F)F)c1 [VL078] | 60.2 µM |
| COc1cccc(C(=O)N2C[C@H](O)C[C@H]2C(=O)NCc2ccc(Cl)cc2)c1 [VL079] | 26.3 µM |
| O=C(NCc1ccc(Cl)cc1)[C@@H]1C[C@@H](O)CN1C(=O)c1cccc(O)c1 [VL080] | 17 µM |
| O=C(NCc1ccc(Cl)cc1)[C@@H]1C[C@@H](O)CN1C(=O)c1ccc(Cl)cc1Br [VL081] | 15.5 µM |
| NS(=O)(=O)c1ccc(C(=O)N2C[C@H](O)C[C@H]2C(=O)NCc2ccc(Cl)cc2)cc1 [VL082] | 29 µM |

same assay, conditions: Table 1A, binding of initial ligands to VHL; average of three independent trials, each in triplicate

| SMILES | IC50 |
| --- | --- |
| Cc1cc(CC(=O)N2C[C@H](O)C[C@H]2C(=O)NCc2cccc(Cl)c2)on1 [Compound 1] | 117 µM |
| Cc1cc(CC(=O)N2C[C@H](O)C[C@H]2C(=O)NCCc2ccc(O)cc2)on1 [Compound 2] | 120 µM |

same assay, conditions: fluorescence polarization, result in words

| SMILES | displacement of the fluorescent HIF-1α peptide |
| --- | --- |
| Cc1cc(CC(=O)N2C[C@H](O)C[C@H]2C(=O)NCc2cccc(Cl)c2)on1 [Compound 1] | able to displace the fluorescent peptide albeit at high concentrations |
| Cc1cc(CC(=O)N2C[C@H](O)C[C@H]2C(=O)NCCc2ccc(O)cc2)on1 [Compound 2] | able to displace the fluorescent peptide albeit at high concentrations |

same assay, conditions: read-out: IC50 (μM) 1% DMSO; 1% DMSO

| SMILES | IC50 |
| --- | --- |
| Cc1cc(CC(=O)N2C[C@H](O)C[C@H]2C(=O)NCCc2ccc(O)cc2)on1 [VL002, (2S,4R)-4-hydroxy-N-(4-hydroxyphenethyl)-1-(2-(3-methylisoxazol-5-yl)acetyl)pyrrolidine-2-carboxamide] | 120 µM |
| Cc1cc(CC(=O)N2C[C@H](O)C[C@H]2C(=O)NCc2cccc(Cl)c2)on1 [VL004, (2S,4R)—N-(3-chlorobenzyl)-4-hydroxy-1-(2-(3-methylisoxazol-5-yl)acetyl)pyrrolidine-2-carboxamide] | 117 µM |
| Cc1cc(CC(=O)N2C[C@H](O)C[C@H]2C(=O)NCc2ccccc2)on1 [VL034] | 130 µM |
